Data reported in patent publication US20190151283A1, “NON-STEROIDAL SELECTIVE GLUCOCORTICOID RECEPTOR AGONISTIC MODULATORS (SEGRAMs) AND USES THEREOF” (ASSOCIATION POUR LA RECHERCHE À L'IGBMC (ARI), priority 2017, published 2019).

Assays:
[1] = target: T1, glucocorticoid receptor (GR) (Mus musculus, UniProt P06537); assay: GR transcriptional functions in mouse ears after topical 18-hour treatment (q-RT-PCR); type: in vivo; conditions: in vivo transcriptional analyses, 1 nmole/cm^2
T1 construct: RNA transcripts were then extracted from mouse ears; from tissue; host or cells: ear skin of Balb/C mice (in vivo topical treatment)
T1 sequence (P06537 1-792): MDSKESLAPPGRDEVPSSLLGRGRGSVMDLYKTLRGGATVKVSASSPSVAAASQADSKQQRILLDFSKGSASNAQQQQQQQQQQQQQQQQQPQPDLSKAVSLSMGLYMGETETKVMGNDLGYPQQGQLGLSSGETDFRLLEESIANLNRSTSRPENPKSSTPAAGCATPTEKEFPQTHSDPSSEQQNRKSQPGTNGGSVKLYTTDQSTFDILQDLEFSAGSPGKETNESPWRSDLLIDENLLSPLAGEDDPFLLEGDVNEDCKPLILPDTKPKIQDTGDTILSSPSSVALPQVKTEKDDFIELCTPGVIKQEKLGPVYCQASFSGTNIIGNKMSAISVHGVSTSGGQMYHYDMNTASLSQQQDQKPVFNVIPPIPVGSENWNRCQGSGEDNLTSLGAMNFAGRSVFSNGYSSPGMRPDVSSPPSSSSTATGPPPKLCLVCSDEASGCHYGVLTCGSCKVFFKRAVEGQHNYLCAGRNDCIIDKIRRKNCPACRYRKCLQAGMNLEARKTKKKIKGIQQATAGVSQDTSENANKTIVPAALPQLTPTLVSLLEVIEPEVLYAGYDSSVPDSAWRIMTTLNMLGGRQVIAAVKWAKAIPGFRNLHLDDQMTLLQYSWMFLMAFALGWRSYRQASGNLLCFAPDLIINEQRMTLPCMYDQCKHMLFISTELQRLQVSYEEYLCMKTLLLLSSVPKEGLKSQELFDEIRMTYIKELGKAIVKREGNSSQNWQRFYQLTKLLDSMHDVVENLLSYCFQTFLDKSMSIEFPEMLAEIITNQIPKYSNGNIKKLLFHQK
Method: RNA transcripts were then extracted from mouse ears and the transcripts of 4 genes were analyzed by q-RT-PCR: • (i) the directly GR-transactivated gene of the mTOR inhibitor REDD1, • (ii) the GR-directly transrepressed gene of keratin 5 (K5) and • (iii) the GR-indirectly “tethered” transrepressed genes of interleukin-1β (IL-1β) and interleukin-6 (IL-6), both being activated in presence of 12-O-tetradecanoylphorbol-13-acetate (TPA).

[2] = system: B6 male mice; assay: Blood glucose and intraperitoneal glucose tolerance test after three-month treatment; type: in vivo, mouse
Method: B6 male mice (8-week-old) were daily subjected for three months to a subcutaneous injection of either vehicle (NaCl 0.9%), Dex, CpdX, CpdX(eA), CpdX(eB), CpdX-D3, CpdX-D3(eA) or CpdX-D3(eB) (1 mg/kg body weight, diluted in vehicle). Mice were over-night-fasted. Mouse blood glucose concentration was measured before (T0) and during two hours (T120) after glucose i.p. injection ([…] body weight).

[3] = system: B6 male mice; assay: Bone formation after three-month treatment (micro-CT, WNT16 transcripts); type: in vivo, mouse; conditions: three months
Method: (§1) B6 male mice (8-week-old) were daily subjected for three months to either a subcutaneous injection of vehicle (NaCl 0.9%), Dex, CpdX, CpdX(eA), CpdX(eB), CpdX-D3, CpdX-D3(eA) or CpdX-D3(eB) (1 mg/kg body weight, diluted in NaCl 0.9%).
From each animal included in the experiments, one femur and the ipsilateral tibia were dissected and preserved in 70% ethanol for further bone microstructure analysis by micro-CT. The FX Quantum micro-CT scanner (Perkin Elmer) was used to perform measurements at the distal femur and midshaft tibia. All scans were performed with an isotropic voxel size of 10 μm, 160 μA tube current and 90 kV tube voltage.
Morphological 3D measurements were performed using the CTAn software (Bruker). Cortical bone parameters, which were measured in the tibia midshaft, included measures of the bone volume fraction as compared to the total volume, cortical thickness, total area, bone area and marrow area. The region of interest was selected from below the distal tibial crest and continued for 20 slices toward the proximal end of the tibia. Trabecular bone parameters were measured in the distal metaphysis of the femurs and included bone volume fraction, trabecular thickness, trabecular number and trabecular spacing. The region of interest was selected from below the distal growth plate where the epiphyseal cap structure completely disappeared and continued for 100 slices toward the proximal end of the femur.
The statistical significance as compared to vehicle treatment was calculated through one-way ANOVA test followed by Dunn's multiple comparison test, *p<0.05; **p<0.01; ***p<0.001; ****p<0.0001.

[4] = system: B6 male mice; assay: Insulin level, insulin tolerance test and liver insulin signalling after three-month treatment; type: in vivo, mouse
Method: B6 male mice (8-week-old) were subjected daily for three months to a subcutaneous injection of either vehicle (NaCl 0.9%), Dex, CpdX, CpdX(eA), CpdX(eB), CpdX-D3, CpdX-D3(eA) or CpdX-D3(eB) (1 mg/kg body weight, diluted in vehicle). After three months, the blood was collected at 10 a.m. by retro-orbital puncture in lithium-heparin coated vials, and the plasmatic level of insulin was determined.
For the intraperitoneal insulin tolerance test (IPITT), mice were fasted for 6 hours before test. The blood glucose concentration was measured both before (T0) and during a one-hour period after insulin i.p. injection (0.75 U/kg body weight).
Following this three-month treatment, liver samples were harvested and lysed in the RIPA buffer (20 mM Tris pH 8, 150 mM NaCl, 10% glycerol, 1% NP-40 and 2 mM EDTA). Antibodies from Cell Signaling were used to assess by Western-Blotting the relative level of p-IRS1 (S318), IRS-1, p-AKT (S473) and AKT.

[5] = system: B6 male mice; assay: Body weight and body composition after three-month treatment; type: in vivo, mouse; conditions: s.c. 1 mg/kg daily, 3 months
Method: B6 male mice (8-week-old) were daily subjected for three months to a subcutaneous injection of either vehicle (NaCl 0.9%), Dex, CpdX or CpdX-D3 (1 mg/kg body weight, diluted in vehicle. A pDEXA machine was used to determine the lean mass and fat mass. The statistical significance was calculated through Krustal-Walis test followed by a Dunn's multiple comparison test, *p<0.05; **p<0.01; ***p<0.001.

[6] = system: B6 male mice; assay: Organ weights (thymus, spleen, adrenal gland, kidney) after three-month treatment; type: in vivo, mouse; conditions: s.c. 1 mg/kg daily, three months
Method: as §1, with “to” for “to either”, “of either” for “of”, “vehicle). Following these treatments, four organs (thymus, spleen, adrenal gland and kidney) were harvested and weighted.” for “NaCl 0.9%).”

[7] = system: B6 male mice; assay: Corticosterone synthesis and adrenal gland after three-month treatment; type: in vivo, mouse
Method: B6 male mice (8-week-old) were daily subjected for three months to either a subcutaneous injection of vehicle (NaCl 0.9%), Dex, CpdX, CpdX(eA), CpdX(eB), CpdX-D3, CpdX-D3(eA) or CpdX-D3(eB) (1 mg/kg body weight, diluted in vehicle).
Following this long-term treatment, blood was collected at 10 a.m. and 6 p.m. by retro-orbital puncture in lithium-heparin coated vials, and the plasmatic level of corticosterone was determined. Adrenal glands were harvested and weighted. RNA transcripts were extracted and transcripts of the Cyp11a, Cyp11b1, Cyp11b2 and HSD3β genes were analyzed by q-RT-PCR. Histological analyses of the adrenal glands were also carried out.

[8] = system: Balb/C mice; assay: Skin atrophy after 8-day topical treatment of dorsal skin; type: in vivo, mouse
Excerpt: To investigate whether, similarly to Dex, a topical administration of CpdX could result in a skin atrophy, Balb/C mice were shaved on the dorsal skin. Ethanol (vehicle), Dex, CpdX or either one of its two enantiomers CpdX(eA) or CpdX(eB), as well as the deuterated form CpdX-D3 or either one of its two enantiomers CpdX-D3(eA) or CpdX-D3(eB), were topically applied onto the dorsal skin for 8 days.
Upon completion of the treatments, RNA transcripts were extracted from dorsal skin samples and the transcripts of Kindlin-1 and REDD1 genes were analyzed by q-RT-PCR. Histological and morphometric analyses of the dorsal skin were also performed.

[9] = system: B6 male mice; assay: Fatty liver after three-month treatment; type: in vivo, mouse; conditions: three months
Method: B6 male mice (8-week-old) were daily subjected for three months to a subcutaneous injection of either vehicle (NaCl 0.9%), Dex, CpdX, CpdX(eA), CpdX(eB), CpdX-D3, CpdX-D3(eA) or CpdX-D3(eB) (1 mg/kg body weight, diluted in vehicle). Following this treatment, blood was collected at 10 a.m. by retro-orbital puncture in lithium-heparin coated vials. The plasmatic levels of total cholesterol and bile acids were determined.
Liver samples were harvested. […] RNA transcripts were extracted from liver samples and the transcripts of fatty acid synthase (FASN) and Stearoyl-CoA desaturase 1 (SCD1) genes were analyzed by q-RT-PCR.

[10] = system: B6 male mice; assay: Bone formation after three-month treatment (micro-CT, WNT16 transcripts); type: in vivo; conditions: mouse tibia, three months

Cc1ccc2c(NC[C@](O)(CC(C)(C)c3cc(F)cc4c3OCC4)C(F)(F)F)cccc2n1 [Mapracorat, reference compound]
GR functions induced (direct transactivation, direct transrepression, indirect tethered transrepression) [1]: all three GR functions

C[C@@H]1C[C@H]2[C@@H]3CCC4=CC(=O)C=C[C@]4(C)[C@@]3(F)[C@@H](O)C[C@]2(C)[C@@]1(O)C(=O)CO [Dex, Dexamethasone, reference compound]
blood glucose level ([2]; three months, over-night fasting, vs vehicle and CpdX compounds): significantly higher
blood glucose level in intraperitoneal glucose tolerance test (IPGTT) ([2]; two-hour period after glucose i.p. injection (2 mg/kg body weight)): significant higher
bone area ([3]; s.c. 1 mg/kg daily, micro-CT): reduced
cortical thickness ([3]; s.c. 1 mg/kg daily, micro-CT): drastically decreased
tibia cortical bone volume as compared to the total volume ([3]; s.c. 1 mg/kg daily, micro-CT): significantly decreased
marrow area ([3]; s.c. 1 mg/kg daily, 'but not' = not reduced): but not
number of trabecula ([3]; data not shown): increase
trabecular bone volume ([3]; data not shown): increased
trabecular spacing ([3]; data not shown): decrease
trabecular thickness ([3]; data not shown): no change
IPITT test, response to insulin ([4]; one hour after insulin i.p. 0.75 U/kg): significant impaired response to insulin
blood insulin level (hyperinsulinemia) ([4]; three months, 10 a.m., 'but not' = no hyperinsulinemia): hyperinsulinemia
phosphorylation of insulin-stimulated protein kinase B (p-AKT S473) ([4]; western-blot, liver): decreased
phosphorylated insulin receptor substrate 1 (p-IRS1 S318) in liver extracts ([4]; western-blot, 'but not' = no decrease): decrease
fat mass ([5]; pDEXA): disproportional increase
lean percentage / lean mass ([5]; pDEXA): decrease
body weight ([5]; compared with vehicle): net loss
kidney weight [6]: weak, but significant loss
spleen weight decreased by [6]: more than 50%
thymus apoptosis / thymus found [6]: no thymus was found in sixteen out of nineteen mice
weight of the adrenal gland [6]: decreased
plasmatic corticosterone levels ([7]; at both 10 a.m. and 6 p.m., compared to control mice (Vehicle)): much lower
cortex layers, most notably the fasciculata zone, of the adrenal glands ([7]; three months, histology): drastically decreased
glomerulosa zone of the adrenal cortex ([7]; three months, histology, 'but not' = not decreased): drastically decreased
transcripts of Cyp11a, Cyp11b1 and HSD3β genes in adrenal glands ([7]; three months, q-RT-PCR): inhibited
transcript of the Cyp11b2 gene in adrenal glands ([7]; three months, q-RT-PCR, 'but not' = not inhibited): inhibited
epidermal thickness decreases by ([8]; eight-day topical treatment, morphometric analysis): ≈ 65%
skin atrophy, histological analysis ([8]; eight-day topical treatment, 'in marked contrast' = no severe atrophy as with Dex): severely induces a skin atrophy
transcription of the Kindlin-1 gene in dorsal skin ([8]; topical 8 days, 1 nmole/cm^2, 'but not' = not decreased): strongly decreased
transcription of the REDD1 gene in dorsal skin ([8]; topical 8 days, 1 nmole/cm^2, 'but not' = not increased): significantly increased
lipid deposition in the liver ([9]; 5% Red oil staining of frozen sections): marked lipid deposition
transcripts of fatty acid synthase (FASN) and Stearoyl-CoA desaturase 1 (SCD1) in liver ([9]; q-RT-PCR, 'but not' = no increase): increase
blood cholesterol and bile acids' levels ([9]; 'but not' = no clear increase): clear increase
transcription of the WNT16 gene decreased by [10]: 50%
